Measurements from patent publication US7495027B2, “3-aryl-4-hydroxyfuranone compounds and the human and animal health use thereof” (Wyeth, priority 2003, dated 2009).
≈ marks a conversion by molar mass, not a printed value. Like-named read-outs stand apart in the source and are kept apart here.

Experiments:
[1] = biological target: T1, S. aureus Uridine-diphosphate-N-acetvimuramoyl: L-alanine lipase, MurC (Staphylococcus aureus, UniProt Q2FXJ0); assay: biochemical; settings: (S) S. aureus enzyme; for IC50: read-out: MurC IC50 (converted)
T1 sequence (Q2FXJ0 1-437): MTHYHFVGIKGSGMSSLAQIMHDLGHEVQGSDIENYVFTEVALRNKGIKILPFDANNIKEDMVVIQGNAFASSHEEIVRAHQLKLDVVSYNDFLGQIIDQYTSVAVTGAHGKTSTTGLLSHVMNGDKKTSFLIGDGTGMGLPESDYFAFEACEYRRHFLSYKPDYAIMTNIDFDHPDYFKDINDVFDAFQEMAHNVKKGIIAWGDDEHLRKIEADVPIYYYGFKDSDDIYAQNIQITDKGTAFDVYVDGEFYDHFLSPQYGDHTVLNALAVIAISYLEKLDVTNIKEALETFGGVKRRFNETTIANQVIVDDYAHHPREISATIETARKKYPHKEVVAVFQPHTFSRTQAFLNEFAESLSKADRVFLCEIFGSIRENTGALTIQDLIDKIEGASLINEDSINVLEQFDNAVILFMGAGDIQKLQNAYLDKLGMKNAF
Method: S. aureus and E. coli Uridine-diphosphate-N-acetvimuramoyl: L-alanine lipase, MurC
Preparation of Enzyme Solution:
A 1 mg/mL stock solution of MurC is prepared in a buffer consisting of 20 mM Tris/HCl (pH 8.5) with 2.5 μM BME. The stock solution is further diluted with the buffer to give a final enzyme concentration of 100 μg/mL for the E. coli stock solution and 70 μg/mL for the S. aureus stock solution.
Preparation of Test Compound Solutions:
All test solutions are prepared in DMSO as 10 mg/mL, then diluted with 50 mM Tris/HCl (pH 8.5) to 100 μg/mL.
Preparation of Stop Solution:
The stop solution is prepared by stirring 1 part 4.2% ammonium molydbate in 4N HCl with 2 parts 0.045% malachite green for 30 min.
In this evaluation, the inhibitory activity of a test compound against MurC, the enzyme which catalyzes the third step of bacterial cell wall bioxynthesis is determined. Experiments are performed by adding 2.5 μl buffer, 2.5 μl 0.5M NH4SO2, 5 μl 2 μM L-Ala, 5 μl enzyme solution and 6.5 μl test compound solution to each well in a 96-well microplate. After a pre-incubation period of 10 mins. at 23° C., 3.75 μl of a 0.75 μM solution of UDP-MurNac is added to each well. Following an incubation period of 10 mins. at 37° C., 210 μl stop solution and 50 μl of a 34% w/v sodium citrate solution are added and color is allowed to develop for 10 mins. at 23° C. (Lanzetta et al., Analytical Biochemistry, 1979, 95) Optical density readings are taken at 660 nm using a Molecular Devices Spectra Max 250 with Soft Max software. Controls are performed using the same procedure and omitting the addition of UDP-MurNac. […]
Using these values the IC50 is determined by linear regression analysis.

[2] = biological target: T2, S. aureus Uridine-diphosphate-N-acetylmuramoyl-L-alanine: D-glutamate liease, MurD (Staphylococcus aureus, UniProt Q2FZ92); assay: biochemical; settings: (S) S. aureus enzyme
T2 sequence (Q2FZ92 1-449): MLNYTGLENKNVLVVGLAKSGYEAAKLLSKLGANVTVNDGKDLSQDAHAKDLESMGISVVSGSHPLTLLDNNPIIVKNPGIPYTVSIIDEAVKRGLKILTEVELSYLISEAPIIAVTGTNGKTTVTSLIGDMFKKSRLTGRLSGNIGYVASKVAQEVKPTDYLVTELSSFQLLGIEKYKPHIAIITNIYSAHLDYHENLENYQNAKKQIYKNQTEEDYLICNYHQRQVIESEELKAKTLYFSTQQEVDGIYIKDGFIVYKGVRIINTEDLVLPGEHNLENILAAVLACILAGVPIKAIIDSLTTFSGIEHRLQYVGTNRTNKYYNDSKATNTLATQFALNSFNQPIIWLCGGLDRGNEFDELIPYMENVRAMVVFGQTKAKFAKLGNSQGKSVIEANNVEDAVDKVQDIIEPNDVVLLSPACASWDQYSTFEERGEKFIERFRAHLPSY
Summary of the method: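 MurD, which catalyses the fourth step of cell wall biosynthesis, was tested for inhibition by compounds. Compounds were made up as 10 mg/mL DMSO stocks and diluted to 100 μg/mL in 50 mM Tris/HCl, pH 8.5.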

enterococci = assay: Minimum inhibitory concentration, microdilution broth method, enterococci; assay type: cell-based; settings: Mueller-Hinton broth, 18-22 hours at 35° C.; for MIC: Enterococcus faecalis
Summary of the method: (§1)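 Broth microdilution per NCCLS M7-A5 (2000). Staphylococci and enterococci grown in Mueller-Hinton broth; streptococci in Mueller-Hinton broth with 5% horse blood (LHB). Panel includes recent clinical isolates resistant to methicillin, penicillin and/or vancomycin.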

Streptococci = assay: Minimum inhibitory concentration, microdilution broth method, streptococci; assay type: cell-based; settings: Mueller-Hinton broth with 5% horse blood, 18-22 hours at 35° C.; for MIC: S. pneumo GC 1894
Summary of the method: as §1

[3] = E. faecalis GC 2242, read-out: MIC E. faecalis GC 2242
[4] = E. faecalis GC 4555, read-out: MIC E. faecalis GC 4555

Row | SMILES | MurC IC50 [1] | MurD IC50 [2] | MIC E. faecalis GC 2242 (enterococci; E. faecalis GC 2242) | MIC E. faecalis GC 4555 (enterococci; E. faecalis GC 4555) | MIC S. pneumo GC 1894 (Streptococci) | IC50 [1] | IC50 [2] | MIC (enterococci; [3]) | MIC (enterococci; [4]) | MIC (Streptococci)
1 | O=C1O/C(=C\c2ccc(-c3cccc(C(F)(F)F)c3)cc2)C(O)=C1c1cccc(C(F)(F)F)c1 | 22 µg/mL | 15 µg/mL | 1 µg/mL (≈ 2.1 µM) | 4 µg/mL (≈ 8.4 µM) | <0.125 µg/mL | – | – | – | – | –
2 | O=C1O/C(=C\c2ccc(-c3cc(Cl)cc(Cl)c3)cc2)C(O)=C1c1cc(Cl)cc(Cl)c1 | – | – | – | – | – | 48.1 µM | > 52.3 µM | 0.5 µg/mL (≈ 1.05 µM) | 1 µg/mL (≈ 2.09 µM) | < 0.125 µg/mL
3 | O=C1OC(=Cc2ccc(-c3ccccc3)cc2)C(O)=C1c1cccc(C(F)(F)F)c1 (mixture of isomers) [Example 11] | 5 µg/mL | 11 µg/mL | 1 µg/mL | 8 µg/mL | <0.125 µg/mL | – | – | – | – | –
4 | Cc1ccc(C=C2OC(=O)C(c3ccc(Cl)cc3)=C2O)s1 (mixture of isomers) [Example 13] | 15 µg/mL | 20 µg/mL | >128 µg/mL | >128 µg/mL | 2 µg/mL | – | – | – | – | –
5 | O=C1OC(=Cc2cccc3ccccc23)C(O)=C1c1ccc(C=NO)cc1 (mixture of isomers) [Example 73] | 23 µg/mL | >25 (E); >25 (S) μg/mL | >128 µg/mL | >128 µg/mL | 64 µg/mL | – | – | – | – | –
6 | O=C1O/C(=C\c2ccc(-c3ccccc3)cc2)C(O)=C1c1cccc(C(F)(F)F)c1 [Example 10] | – | – | – | – | – | 17.1 µM | 31.8 µM | 1 µg/mL (≈ 2.45 µM) | 8 µg/mL (≈ 19.6 µM) | < 0.125 µg/mL
7 | Cc1ccc(C=C2OC(=O)C(c3ccc(Cl)cc3)=C2O)s1 [Example 14] | 22 µg/mL | >25 (E); >25 (S) μg/mL | 64 µg/mL (≈ 201 µM) | 4 µg/mL (≈ 12.5 µM) | 64 µg/mL (≈ 201 µM) | – | – | – | – | –
8 | O=C1O/C(=C\C2CCCCC2)C(O)=C1c1ccc(Cl)cc1 [Example 15] | – | – | – | – | – | > 82 µM | > 82 µM | 32 µg/mL (≈ 105 µM) | 64 µg/mL (≈ 210 µM) | 0.5 µg/mL (≈ 1.64 µM)
9 | O=C1OC(=CC2CCCCC2)C(O)=C1c1cccc(C(F)(F)F)c1 [Example 16] | 22 µg/mL | >25 (E); >25 (S) μg/mL | 64 µg/mL (≈ 189 µM) | 64 µg/mL (≈ 189 µM) | 0.5 µg/mL (≈ 1.48 µM) | – | – | – | – | –
10 | O=C1O/C(=C\C2CCCCC2)C(O)=C1c1cccc(C(F)(F)F)c1 [Example 17] | – | – | – | – | – | > 73.9 µM | > 73.9 µM | 32 µg/mL (≈ 94.6 µM) | 64 µg/mL (≈ 189 µM) | < 0.125 µg/mL
11 | COc1cc(/C=C2\OC(=O)C(c3cccc(Cl)c3)=C2O)ccc1-c1ccccc1Cl [Example 18] | – | – | – | – | – | 22.8 µM | 41 µM | 8 µg/mL (≈ 18.2 µM) | 16 µg/mL (≈ 36.4 µM) | 0.5 µg/mL (≈ 1.14 µM)
12 | COc1ccccc1-c1ccc(/C=C2\OC(=O)C(c3cc(Cl)cc(Cl)c3)=C2O)cc1OC [Example 19] | – | – | – | – | – | 40.5 µM | 36.2 µM | 8 µg/mL (≈ 17 µM) | 8 µg/mL (≈ 17 µM) | 0.5 µg/mL (≈ 1.07 µM)
13 | COc1ccccc1-c1ccc(/C=C2\OC(=O)C(c3ccc(Cl)c(Cl)c3)=C2O)cc1OC [Example 20] | – | – | – | – | – | 32 µM | 40.5 µM | 16 µg/mL (≈ 34.1 µM) | 16 µg/mL (≈ 34.1 µM) | 0.5 µg/mL (≈ 1.07 µM)
14 | COc1cc(/C=C2\OC(=O)C(c3cc(Cl)cc(Cl)c3)=C2O)ccc1-c1ccccc1Cl [Example 21] | – | – | – | – | – | 42.2 µM | 16.9 µM | 2 µg/mL (≈ 4.22 µM) | 4 µg/mL (≈ 8.44 µM) | 0.5 µg/mL (≈ 1.06 µM)
15 | COc1cc(/C=C2\OC(=O)C(c3cccc(Cl)c3)=C2O)ccc1-c1ccccc1C [Example 22] | – | – | – | – | – | 28.6 µM | 40.6 µM | 8 µg/mL (≈ 19.1 µM) | 16 µg/mL (≈ 38.2 µM) | 1 µg/mL (≈ 2.39 µM)
16 | COc1ccccc1-c1ccc(/C=C2\OC(=O)C(c3cccc(Cl)c3)=C2O)cc1C [Example 23] | – | – | – | – | – | 28.6 µM | 23.9 µM | 8 µg/mL (≈ 19.1 µM) | 8 µg/mL (≈ 19.1 µM) | 1 µg/mL (≈ 2.39 µM)
17 | COc1ccccc1-c1ccc(/C=C2\OC(=O)C(c3cc(Cl)cc(Cl)c3)=C2O)cc1C [Example 24] | – | – | – | – | – | 26.5 µM | 24.3 µM | 4 µg/mL (≈ 8.82 µM) | 4 µg/mL (≈ 8.82 µM) | 0.5 µg/mL (≈ 1.1 µM)
18 | COc1cc(/C=C2\OC(=O)C(c3cc(Cl)cc(Cl)c3)=C2O)ccc1-c1ccccc1C [Example 25] | – | – | – | – | – | 26.5 µM | 30.9 µM | 2 µg/mL (≈ 4.41 µM) | 4 µg/mL (≈ 8.82 µM) | 0.25 µg/mL (≈ 0.551 µM)
19 | Cc1cc(/C=C2\OC(=O)C(c3cccc(Cl)c3)=C2O)ccc1-c1ccccc1C(F)(F)F [Example 26] | – | – | – | – | – | 13.1 µM | 19.7 µM | 2 µg/mL (≈ 4.38 µM) | 4 µg/mL (≈ 8.76 µM) | < 0.125 µg/mL
20 | O=C1O/C(=C\c2cccc3ccccc23)C(O)=C1c1cccc2ccccc12 [Example 47] | – | – | – | – | – | – | > 68.6 µM | 32 µg/mL (≈ 87.8 µM) | 64 µg/mL (≈ 176 µM) | 16 µg/mL (≈ 43.9 µM)
21 | O=C1O/C(=C\c2ccc(-c3ccc(Cl)cc3)cc2)C(O)=C1c1ccc(Cl)cc1 [R=H, R1=4-Cl—C6H4, R2=4-(4′-Cl-biphenyl)] | – | – | – | – | – | – | 19.5 µM | 2 µg/mL (≈ 4.89 µM) | 8 µg/mL (≈ 19.5 µM) | < 0.125 µg/mL
